Reference: patent publication US11446299B2, “Carbazole EHop-016 derivatives as anticancer and anti-migratory agents” (UNIVERSITY OF PUERTO RICO, priority 2017, dated 2022)
Values joined by “and” are separate entries in the source; they are usually repeats but may differ in a detail not shown here. Identical values can stand only once.

Legend:
[1] = tested on: MDA-MB-231 metastatic breast cancer cells; assay: Cell viability, CellTiter 96 AQueous One Solution Cell Proliferation Assay; assay type: cell-based, human; details: HV-107 24 or 48 h, HV-118 48 h
Description: FIG. 7. Effect of HV-107 on cell viability. Cells were treated with vehicle control (0.5% DMSO) or varying concentrations of HV-107 (250-6000 nM) for 48 h. Cell viability was measured using the CellTiter 96® AQueous One Solution Cell Proliferation Assay from Promega, as per manufacturer's instruction. Relative cell viability is presented for non-cancerous mammary epithelial cells (MCF10A) or metastatic breast cancer cells MDA-MB-231 or MDA-MB-435. N=3-4, each with three technical replicates; Error bars represent ±SEM; * p≤0.05.
(§1) FIG. 9. Effect of HV-118 on cell viability. Cells were treated with vehicle control (0.5% DMSO) or varying concentrations of HV-118 (10-500 nM) for 48 h. Cell viability was measured using the CellTiter 96® AQueous One Solution Cell Proliferation Assay from Promega, as per manufacturer's instruction. Relative cell viability is presented for human non-cancerous mammary epithelial cells (MCF10A) or human metastatic breast cancer cells MDA-MB-231 or MDA-MB-435. N=3, each with three technical replicates; error bars represent ±SEM; * p≤0.05.
Cells were treated with ehicle control (0.5% DMSO) or varying concentrations of HV-107 (250-8000 nM) for 24 or 48 h. Cell viability was measured using the CellTiter 96® AQueous One Solution Cell Proliferation Assay from Promega, as per manufacturer's instruction. Relative cell viability is presented for non-cancerous mammary epithelial cells MCF10A (FIG. 7) or metastatic breast cancer cells MDA-MB-231 or MDA-MB-435. N=3, each with three technical replicates; Error bars represent ±SEM; * p≤0.05.
as §1, with “Cells” for “FIG. 9. Effect of HV-118 on cell viability. Cells”, “MCF10A (FIG. 9)” for “(MCF10A)”

caspase 3 = assay: Caspase-Glo 3/7 assay; assay type: cell-based, human
Description: FIG. 15 (A-D). Effect of HV-107 and HV-118 on Caspase 3/7 activity. FIG. 15 A, C. MDA-MB-231 and FIG. 15 B, D. MDA-MB-435 human metastatic breast cancer cells were treated for 48 or 72 h with 0, 500 or 1000 nM HV-107, 100 or 200 nM HV-118. Caspase 3/7 activity was measured using the Caspase-Glo 3/7 Assay (Promega, Corp.) as per manufacturer's instruction. N=4: error bars represent ±SEM; * p≤0.05.
Subsequently, the effects of HV-107 and HV-118 were evaluated in cell survival and cell migration, known Rac-regulated cell functions relevant for cancer progression. The effects of HV-107 and HV-118 on cancer cell survival were determined by measuring the levels of active caspase 3 in MDA-MB-231 and MDA-MB-435 metastatic breast cancer cells after treatment with HV-107 at 500 and 1000 nM, or HV-118 at 100 and 200 nM for 48-72 h. After 48 h, HV-107 caused a significant 1.4-1.5 fold increase in caspase 3 activity in MDA-MB-231 (at 500 and 1000 nM) and MDA-MB-435 (at 1000 nM) cells. […] The effects of both compounds were also examined in the activity of Akt, an important kinase that promotes survival signaling, is frequently hyperactivated in malignant cancers, and can be regulated by Rac. Because Akt is activated by phosphorylation events, the effects of HV-107 and HV-118 were analyzed in Akt phosphorylation by western blot (FIG. 16 (A-D)).

Rac = Rac (Homo sapiens, UniProt P63000); assay: Rac activation, pulldown with p21-binding domain of PAK / ELISA-based Rac activity assay; assay type: cell-based; design: endogenous in cells; host or cells: MDA-MB-231 and MDA-MB-435 human breast cancer cells; details: for efficiency of Rac activation inhibition compared to lead compound Ehop-016: metastatic breast cancer cells
Description: FIG. 8 (A-B). Effect of HV-107 on Rac activation. FIG. 8A. MDA-MB-231 and FIG. 8B. MDA-MB-435 human breast cancer cells were treated for 24 h with 0, 100, or 250 nM HV-107. After treatment, total protein was extracted and equal amounts of proteins subjected to pulldown assays using the p21-binding domain of PAK to isolate the GTP bound (active) Rac. Samples were then western blotted for total and active Rac and positive bands quantified using image J. N=2; error bars represent ±SEM; * p≤0.05.
FIG. 10 (A-B). Effect of HV-118 on Rac activation. FIG. 10A. MDA-MB-231 and FIG. 10B. MDA-MB-435 human breast cancer cells were treated for 24 h with 0, 25, 50, or 100 nM HV-118. After treatment, total protein was extracted and equal amounts of proteins subjected to pulldown assays using the p21-binding domain of PAK to isolate the GTP bound (active) Rac. Samples were then western blotted for total and active Rac and positive bands quantified using image J. N=3-6; error bars represent ±SEM; * p≤0.05.
Additionally, the effect of replacing the aliphatic amide group at the 3-position with an aromatic ring, was also explored by synthesizing compound 7b. […] Addition of a three-carbon atom aliphatic chain linker between the pyridine ring (at the 2-position) and the morpholine group, as for 3d and 11a, results in some loss of anti-migratory activity. Moreover, the effect of 11b was tested on Rac activity, using an ELISA-based Rac activity assay and pulldowns assay.
The effects of HV-107 on the inhibition of Rac activation were tested by pulldown assays.
(§2) In FIG. 8A and FIG. 8B, human breast cancer cells MDA-MB-231 and MDA-MB-435, respectively, were treated for 24 h with 0, 250, or 500 nM HV-107. After treatment, total protein was extracted and equal amounts of proteins subjected to pulldown assays using the p21-binding domain of PAK to isolate the GTP bound (active) Rac. Samples were then western blotted for total and active Rac and positive bands quantified using image J. N=2; error bars represent ±SEM; * p≤0.05.
The effects of HV-118 on the inhibition of Rac activation were tested by pulldown assays.
as §2, with “10A” for “8A”, “10B,” for “8B,”, “25, 50,” for “250,”, “100” for “500”, “HV-118.” for “HV-107.”, “N=3-6;” for “N=2;”

CCn1c2ccccc2c2cc(Nc3cc(C)nc(Cl)n3)ccc21 [HV-118, (2-Chloro-6-methyl-pyrimidin-4-yl)-(9-ethyl-9H-carbazol-3-yl)-amine]
concentration at which viability is significantly inhibited [1]: ≥ 50 nM | fold increase in caspase 3 activity (caspase 3; MDA-MB-231, 48 h, 100 and 200 nM): 1.6-1.8 fold | fold increase in caspase 3 activity (caspase 3; MDA-MB-435, 72 h, 'the same level' as in MDA-MB-231): 1.6-1.8 fold | inhibition at 0.1 µM (Rac; at 100 nM, 24 h, MDA-MB-231 and MDA-MB-435 cells): ~60% | efficiency of Rac activation inhibition compared to lead compound Ehop-016 (Rac): approximately 10 × | potency relative to EHop-016 (Rac; preliminary data): up to 20 times

CCn1c2ccccc2c2cc(C(=O)Nc3cccnc3N3CCOCC3)ccc21 [Compound 11b, 9-Ethyl-9H-carbazole-3-carboxylic Acid (2-morpholin-4-yl-pyridin-3-yl)-amide]
concentration at which viability is significantly inhibited [1]: ≥ 500 nM | fold increase in caspase 3 activity (caspase 3; MDA-MB-231, 48 h, 500 and 1000 nM): 1.4-1.5 fold | fold increase in caspase 3 activity (caspase 3; MDA-MB-435, 48 h, 1000 nM): 1.4-1.5 fold | inhibition at 0.25 µM (Rac; at 250 nM, 24 h, MDA-MB-231 and MDA-MB-435 cells): 55% | inhibition of Rac activation (Rac; at 250 nM, 24 h, MDA-MB-231 and MDA-MB-435 cells, listed as HV-107, 0.25 µM): 60% and 50% | efficiency of Rac activation inhibition compared to lead compound Ehop-016 (Rac): approximately 4 ×
